# Target: DNA-PK (Homo sapiens, UniProt P78527)
# Assay: DNA-PK Inhibition Assay (standard radiometric kinase assay, 33P-ATP, peptide substrate)
# Type: biochemical
# Details: radiometric assay, approximately 6 nM DNA-PK, 100 μM ATP, 45 min; fit to competitive tight-binding inhibition; read-out: Ki for the inhibition of DNA-PK
# Experimental: Compounds were screened for their ability to inhibit DNA-PK kinase using a standard radiometric assay. Briefly, in this kinase assay the transfer of the terminal ^33P-phosphate in ^33P-ATP to a peptide substrate is interrogated. The assay was carried out in 384-well plates to a final volume of 50 μL per well containing approximately 6 nM DNA-PK, 50 mM HEPES (pH 7.5), 10 mM MgCl2, 25 mM NaCl, 0.01% BSA, 1 mM DTT, 10 μg/mL sheared double-stranded DNA (obtained from Sigma), 0.8 mg/mL DNA-PK peptide (Glu-Pro-Pro-Leu-Ser-Gln-Glu-Ala-Phe-Ala-Asp-Leu-Trp-Lys-Lys-Lys, obtained from American Peptide), and 100 μM ATP. Accordingly, compounds of the invention were dissolved in DMSO to make 10 mM initial stock solutions. Serial dilutions in DMSO were then made to obtain the final solutions for the assay. A 0.75 μL aliquot of DMSO or inhibitor in DMSO was added to each well, followed by the addition of ATP substrate solution containing ^33P-ATP (obtained from Perkin Elmer). The reaction was started by the addition of DNA-PK, peptide and ds-DNA. After 45 min, the reaction was quenched with 25 μL of 5% phosphoric acid. The reaction mixture was transferred to MultiScreen HTS 384-well PH plates (obtained from Millipore), allowed to bind for one hour, and washed three times with 1% phosphoric acid. Following the addition of 50 μL of Ultima Gold™ high efficiency scintillant (obtained from Perkin Elmer), the samples were counted in a Packard TopCount NXT Microplate Scintillation and Luminescence Counter (Packard BioScience). The Ki values were calculated using Microsoft Excel Solver macros to fit the data to the kinetic model for competitive tight-binding inhibition.
row,SMILES,Ki [µM]
1,c1cc(N2CCOCC2)nc(N[C@H]2CC[C@@H](Oc3cc(N4CCOCC4)cc4nccnc34)CC2)n1 [Compound 548],< 0.1
2,Fc1c(N[C@H]2CC[C@@H](Oc3cc(N4CCOCC4)cc4nccnc34)CC2)ncnc1C1CC1 [Compound 456],< 0.1
3,c1cnc2c(O[C@H]3CC[C@@H](Nc4ncnc5occc45)CC3)cc(N3CCOCC3)cc2n1 [Compound 518],< 0.1
4,CCSc1nc(C)cc(N[C@H]2CC[C@@H](Oc3cc(N4CCOCC4)cc4nccnc34)CC2)n1 [Compound 635],< 0.1
5,O=C1Cc2c(ncnc2N[C@H]2CC[C@@H](Oc3cc(N4CCOCC4)cc4nccnc34)CC2)N1 [Compound 502],< 0.1
6,Cc1nccc(N[C@H]2CC[C@@H](Oc3cc(N4CCOCC4)cc4nonc34)CC2)n1 [Compound 316],< 0.1
7,CCOC1CCN(c2cc(N[C@H]3CC[C@@H](Oc4cc(N5CCOCC5)cc5nccnc45)CC3)ncn2)CC1 [Compound 472],< 0.1
8,Cc1nc2c(c(N[C@H]3CC[C@@H](Oc4cc(N5CCOCC5)cc5nccnc45)CC3)n1)OCC2 [Compound 403],< 0.1
9,CC1(C)OCc2cc(N[C@H]3CC[C@@H](Oc4cc(N5CCOCC5)cc5nccnc45)CC3)cnc21 [Compound 571],< 0.1
10,Cc1ncc(-c2cc(N[C@H]3CC[C@@H](Oc4cc(N5CCOCC5)cc5nccnc45)CC3)ncn2)cn1 [Compound 426],< 0.1
11,O=C1Cc2cnc(N[C@H]3CC[C@@H](Oc4cc(N5CCOCC5)cc5nccnc45)CC3)nc2N1 [Compound 552],< 0.1
12,Cc1nc(N[C@H]2CC[C@@H](Oc3cc(N4CCOCC4)cc4nccnc34)CC2)c2occc2n1 [Compound 435],< 0.1
13,CN1CCN(c2ccnc(N[C@H]3CC[C@@H](Oc4cc(N5CCOCC5)cc5nccnc45)CC3)n2)CC1 [Compound 547],< 0.1
14,Cc1cc2nc(N[C@H]3CC[C@@H](Oc4cc(N5CCOCC5)cc5nccnc45)CC3)cc(=O)n2o1 [Compound 596],< 0.1
15,COCCNc1ncnc(N[C@H]2CC[C@@H](Oc3cc(N4CCOCC4)cc4nccnc34)CC2)c1F [Compound 382],< 0.1
16,Cn1ncc2c(N[C@H]3CC[C@@H](Oc4cc(N5CCOCC5)cc5nccnc45)CC3)ncnc21 [Compound 545],< 0.1
17,c1cnc(N[C@H]2C[C@@H](COc3cc(N4CCOCC4)cc4nccnc34)C2)nc1 [Compound 305],< 0.1
18,CCCc1nc(C)cc(N[C@H]2CC[C@@H](Oc3cc(N4CCOCC4)cc4nccnc34)CC2)n1 [Compound 618],< 0.1
19,CN1CCN(c2ncnc(N[C@H]3CC[C@@H](Oc4cc(N5CCOCC5)cc5nccnc45)CC3)c2F)CC1 [Compound 474],< 0.1
20,CN1CC[C@H](Nc2ncnc(N[C@H]3CC[C@@H](Oc4cc(N5CCOCC5)cc5nccnc45)CC3)c2F)C1 [Compound 343],< 0.1
21,Fc1c(N[C@H]2CC[C@@H](Oc3cc(N4CCOCC4)cc4nccnc34)CC2)ncnc1N1CCOCC1 [Compound 511],< 0.1
22,CC(C)(C)OC(=O)c1cc(N[C@H]2CC[C@@H](Oc3cc(N4CCOCC4)cc4nccnc34)CC2)ccc1F [Compound 421],< 0.1
23,CC(C)(O)c1ccnc(N[C@H]2CC[C@@H](Oc3cc(N4CCOCC4)cc4nccnc34)CC2)c1 [Compound 573],< 0.1
24,c1nc(N[C@H]2CC[C@@H](Oc3cc(N4CCOCC4)cc4nccnc34)CC2)cc(-c2nnco2)n1 [Compound 566],< 0.1
25,CNC(=O)c1ccnc(N[C@H]2CC[C@@H](Oc3cc(N4CC5CC(C4)O5)cc4nccnc34)CC2)n1 [Compound 317],< 0.1
26,CN1CCN(c2nccc(N[C@H]3CC[C@@H](Oc4cc(N5CCOCC5)cc5nccnc45)CC3)n2)CC1 [Compound 535],< 0.1
27,c1cc(C2CCNCC2)nc(N[C@H]2CC[C@@H](Oc3cc(N4CCOCC4)cc4nccnc34)CC2)n1 [Compound 551],< 0.1
28,CN1CCN(c2ccc(N[C@H]3CC[C@@H](Oc4cc(N5CCOCC5)cc5nccnc45)CC3)nc2)CC1 [Compound 626],< 0.1
29,c1cnc2c(O[C@H]3CC[C@@H](Nc4ncnc5ccoc45)CC3)cc(N3CCOCC3)cc2n1 [Compound 488],< 0.1

# Second part, the compound after the results:
row,Ki [µM],SMILES
1,< 0.1,Fc1cncnc1N[C@H]1CC[C@@H](Oc2cc(N3CCOCC3)cc3nccnc23)CC1 [Compound 531]
2,< 0.1,COCc1cc(N[C@H]2CC[C@@H](Oc3cc(N4CCOCC4)cc4nccnc34)CC2)nc(C)n1 [Compound 616]
3,< 0.1,O=C(O)c1ccc(N[C@H]2CC[C@@H](Oc3cc(N4CCOCC4)cc4nccnc34)CC2)cn1 [Compound 393]
4,< 0.1,CC(C)c1cc(N[C@H]2CC[C@@H](Oc3cc(N4CCOCC4)cc4nccnc34)CC2)ncn1 [Compound 652]
5,< 0.1,Cc1cc(N[C@H]2CC[C@@H](Oc3cc(N4CCOCC4)cc4nccnc34)CC2)nn1C [Compound 326]
6,< 0.1,Cc1cc(N[C@H]2CC[C@@H](Oc3cc(N4CCOCC4)cc4nccnc34)CC2)n[nH]c1=O [Compound 599]
7,< 0.1,O=C(O)c1cc(N[C@H]2CC[C@@H](Oc3cc(N4CCOCC4)cc4nccnc34)CC2)ncn1 [Compound 653]
8,< 0.1,Cc1nc(N[C@H]2CC[C@@H](Oc3cc(N4CCOCC4)cc4nccnc34)CC2)ncc1F [Compound 476]
9,< 0.1,COC(=O)c1cc(N[C@H]2CC[C@@H](Oc3cc(N4CCOCC4)cc4nccnc34)CC2)ncc1O [Compound 404]
10,< 0.1,Cc1ccc(N[C@H]2CC[C@@H](Oc3cc(N4CCOCC4)cc4nccnc34)CC2)cn1 [Compound 444]
11,< 0.1,c1cc(N[C@H]2CC[C@@H](Oc3cc(N4CCOCC4)cc4nccnc34)CC2)cnn1 [Compound 354]
12,< 0.1,Cc1cnc(N[C@H]2CC[C@@H](Oc3cc(N4CCOCC4)cc4nccnc34)CC2)cn1 [Compound 282]
13,< 0.1,c1cnc2c(O[C@H]3CC[C@@H](Nc4cncc5nccn45)CC3)cc(N3CCOCC3)cc2n1 [Compound 336]
14,< 0.1,Cc1csc(N[C@H]2CC[C@@H](Oc3cc(N4CCOCC4)cc4nccnc34)CC2)n1 [Compound 284]
15,< 0.1,c1nc(N[C@H]2CC[C@@H](Oc3cc(N4CCOCC4)cc4nccnc34)CC2)cc(C2CC2)n1 [Compound 650]
16,< 0.1,c1cnc2c(O[C@H]3CC[C@@H](Nc4ccn5nccc5n4)CC3)cc(N3CCOCC3)cc2n1 [Compound 498]
17,< 0.1,Cc1cncnc1N[C@H]1CC[C@@H](Oc2cc(N3CCOCC3)cc3nccnc23)CC1 [Compound 471]
18,< 0.1,O=C(O)c1cccc(N[C@H]2CC[C@@H](Oc3cc(N4CCOCC4)cc4nccnc34)CC2)n1 [Compound 419]
19,< 0.1,c1ncc(N[C@H]2CC[C@@H](Oc3cc(N4CCOCC4)cc4nccnc34)CC2)cn1 [Compound 575]
20,< 0.1,Nc1nccc(N[C@H]2CC[C@@H](Oc3cc(N4CCOCC4)cc4nccnc34)CC2)n1 [Compound 397]
21,< 0.1,COc1ncc(F)c(N[C@H]2CC[C@@H](Oc3cc(N4CCOCC4)cc4nccnc34)CC2)n1 [Compound 396]
22,< 0.1,Cc1nccnc1N[C@H]1CC[C@@H](Oc2cc(N3CCOCC3)cc3nccnc23)CC1 [Compound 335]
23,< 0.1,Clc1cnc(N[C@H]2CC[C@@H](Oc3cc(N4CCOCC4)cc4nccnc34)CC2)nc1 [Compound 485]
24,< 0.1,Clc1cncc(N[C@H]2CC[C@@H](Oc3cc(N4CCOCC4)cc4nccnc34)CC2)n1 [Compound 374]

# Source: US12251387B2, “Substituted quinoxalines and benzo[c][1,2,5]oxadiazoles as DNA-PK inhibitors” (Vertex Pharmaceuticals Incorporated, priority 2013, dated 2025)
